# Test results reported in patent publication US20240251788A1, “HERBICIDE/SAFENER COMBINATION BASED ON SAFENERS FROM THE CLASS OF SUBSTITUTED [(1,5-DIPHENYL-1H-1,2,4-TRIAZOL-3-YL)OXY]ACETIC ACIDS AND THEIR SALTS” (Bayer Aktiengesellschaft, priority 2021, published 2024).
# How the values were obtained:
# [1] = test system: summer wheat crop plant (TRZAS; cv. Triso); assay: Reduction in herbicide damage to summer wheat by safener, greenhouse post-emergence application, visual scoring; type: in vivo; settings: summer wheat (TRZAS); herbicide dose 300 g a.i./ha, without safener
# Procedure: (§1) The seeds of the crop plants to be treated are laid out in soil in woodfiber pots (diameter ˜ 7 cm), covered with soil and grown in a greenhouse under good conditions for germination and growth. The trial plants were treated at the early leaf stage (BBCH10-BBCH12).
# The herbicides used (component B) were used in the following formulations: • B2.81: WP • B2.85: WP • B2.92: WP • Cinmethylin: EC • Clomazone: WP • Ethofumesate: WP • Flufenacet: SC • Pinoxaden: WP • Saflufenacil: WP • Bicyclopyrone: WP • Picloram: WP • Metazachlor: SC • Flumioxazin: WP • Glyphosate potassium salt: SL • Topramezone: WP
# (§2) The dose of the respective herbicides was chosen here such that it causes an average degree of visually apparent damage (min. 20%, max. 75%) compared to untreated crop plants at the evaluation time on a control group of crop plants without safener treatment that were included in the same trial.
# (§3) In the respective herbicide/safener combinations, the safeners (component A) in the form of wettable powders (WP) were added in the dose specified; in these cases, herbicide and safener are thus applied as a mixture.
# (§4) Application was effected in each case on to the above-ground parts of the plant, at a water application rate corresponding to 300 l/ha and with addition of wetting agent (Mero, 1.5 l/h a).
# In the applications that contained pinoxaden, bicyclopyrone or topramezone, the herbicidal effect was enhanced by additionally adding ammonium sulfate (2 kg/ha).
# (§5) After application, the plants were cultivated under good growth conditions in a greenhouse. On account of the different mechanisms of action of the herbicides used, the damaging effect of the herbicides was fully manifested at different times depending on the herbicide, and this in turn forms the basis for assessment of the safener action in the mixtures. Therefore, the damage was scored visually, depending on the herbicide/mixture, between 11 and 21 days after application.
# (§6) The damage effect was assessed visually on a scale of 0-100% by comparison with untreated control plants, and averaged over 2 repeats per treatment.
# [2] = test system: summer barley crop plant (HORVS: cv. Quench); assay: Reduction in herbicide damage to summer barley by safener, greenhouse post-emergence application, visual scoring; type: in vivo; settings: summer barley (HORVS); herbicide dose 300 g a.i./ha, without safener
# Procedure: as §1
# The herbicides used (component B) were used in the following formulations: • B2.81: WP • B2.85: WP • B2.92: WP • Clomazone: WP • Ethofumesate: WP • Flufenacet: SC • Fluroxypyr: EC • Saflufenacil: WP • Thiencarbazone-methyl: WP • Iodosulfuron-methyl-sodium: WP • Bifenox: WP • Glyphosate potassium salt: SL • Topramezone: WP
# as §2, §3, §4
# In the applications that contained pinoxaden or topramezone, the herbicidal effect was enhanced by additionally adding ammonium sulfate (2 kg/ha).
# as §5, §6
substance,measurement,setting,value
"topramezone [Compound B4.28, reference compound]",Damage to the plant by the herbicide (in %),[1],40%
same,Damage to the plant by the herbicide (in %),[2],50%
